Target: T1, V2 -vasopressin receptors (Rattus norvegicus, UniProt Q00788)
T1 construct: from tissue; host or cells: whole animal (hydropenic rat)
Assay: in vivo diuretic activity in the hydropenic rat
Conditions: measure of V2 antagonism
Method: Antagonistic activity at the V2 -vasopressin receptors is determined in a protocol which determines in vivo diuretic activity in the hydropenic rat (ED300 μg/kg). This procedure is described in the literature: F. Stassen et al., 1st International Conference on Diuretics, Miami, FL., March (1984).

T1 sequence (Q00788 whole entry): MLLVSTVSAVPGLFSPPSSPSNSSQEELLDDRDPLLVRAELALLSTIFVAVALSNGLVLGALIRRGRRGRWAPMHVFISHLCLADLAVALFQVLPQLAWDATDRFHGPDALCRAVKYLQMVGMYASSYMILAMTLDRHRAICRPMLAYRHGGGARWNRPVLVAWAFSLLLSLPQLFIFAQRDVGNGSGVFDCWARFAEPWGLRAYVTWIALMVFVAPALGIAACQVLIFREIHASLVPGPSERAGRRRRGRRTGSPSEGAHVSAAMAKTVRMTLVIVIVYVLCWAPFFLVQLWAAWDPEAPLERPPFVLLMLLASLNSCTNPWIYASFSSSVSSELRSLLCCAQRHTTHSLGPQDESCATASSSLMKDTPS

Row | Substance | ED300 [mg/kg]
1 | [1-(β,β-diethyl β-mercaptopropionic acid)-2-(O-ethyl-D-tyrosine)-4-valine-8-arginine-9-desglycine]-vasopressin [Compound B] | 0.0119
2 | [1-(β,β-diethyl-β-mercaptopropionic acid)-2-(O-ethyl-L-tyrosine)-4-valine-8-arginine] vasopressin [Compound C] | 0.1205
3 | [1-(β,β-dimethyl-β-mercaptopropionic acid)-2-(O-ethyl-D-tyrosine)-4-valine-8-arginine]vasopressin [Compound D, reference compound] | 4.95

From patent US4749782A, “Vasopressin compounds” (Smithkline Beckman Corporation, priority 1986, dated 1988)
